Results reported in patent publication US20100093603A1, “USE OF ORGANIC COMPOUNDS” (priority 2008, published 2010).

Legend:
Type in all cases: in vivo, Sprague Dawley rats
[1] = tested on: intracellular Ang II (iAng II) in cardiac myocytes; test: Measurement of iAng II in cardiac myocytes isolated from STZ-diabetic rat hearts (competitive ELISA); conditions: for iAng II levels in cardiac myocytes: STZ-diabetic rats treated daily for 7 days (insulin 2-5 U BID SC; candesartan 1 mg/kg IP; aliskiren 30 mg/kg oral; benazepril 10 mg/kg oral), mean±SE, diabetic untreated 0.59±0.01, control 0.06±0.01; for iAng II synthesis, blocked or not (result in words): diabetic rats, summary statement
Protocol: (§1) Diabetes is induced by a single injection of streptozotocin (STZ, 65 mg/kg body weight, IP) dissolved in 0.1 M sodium citrate buffered saline (pH 4.5), in adult male Sprague Dawley rats (250-300 g). Control animals receive buffered saline alone. Diabetes is confirmed by sustained blood glucose levels >15 mmol/L, as determined 48 h after STZ injection and on alternate days thereafter. […] After 7 days, animals are weighed and anesthetized using ketamine/xylazine (50/5 mg/kg). Hearts are isolated and weighed before perfusion, the latter using the Langendorff methodology.
Hearts are isolated and perfused with Krebs-Henseleit bicarbonate buffer, followed by digestion with collagenase II (0.1% w/v). Myocytes are separated from non-myocytes by differential centrifugation at 25×g. […] The pellet containing myocytes is processed for Ang II extraction, as described by Singh et al in Am J Physiol Heart Circ Physiol 293:H939-H948, 2007. Cells were lysed in ice-cold 1 M acetic acid, containing a protease inhibitor cocktail (Sigma), by sonication (2 pulses of 5 sec each). The lysate is sedimented at 20,000×g for 10 min and the supernatant is dried in a vacufuge, followed by reconstitution in 1% acetic acid. The samples are applied to a conditioned DSC-18 column (Supelco), washed, and eluted with methanol. The eluted samples are dried and reconstituted in PBS for ELISA. For isolation of Ang II from plasma, an equal volume of 2% acetic acid is added to plasma, followed by filtration through Amicon Ultra-15 filters. The filtrate is applied to DSC-18 columns and Ang II is eluted, as described for the cell lysates. […] Ang II is measured by quantitative, competitive ELISA, using a specific anti-Ang II antibody (Peninsula Labs), as previously described in Am J Physiol Heart Circ Physiol 293:H939-H948, 2007. ELISA is performed on protein-A and anti-Ang II antibody-coated 96-well dishes. Competitive binding of synthetic biotinylated Ang II, in the presence of the extracted peptide, is detected with streptavidin-horseradish peroxidase conjugate. A standard curve, generated from binding of a constant amount of biotinylated Ang II with increasing concentrations of non-biotinylated synthetic Ang II, is used to calculate the concentration of the peptide in the sample. The concentration of Ang II in the cell lysates is expressed as fmoles per milligram of heart wt and in plasma as fmoles per milligram of plasma proteins.
Ang II levels in cardiac myocytes, which are isolated after perfusion of the hearts and enzymatic dispersion, correspond to Ang II present intracellularly. To determine the source of iAng II, i.e., intracellular synthesis or AT1-mediated internalization, one group of diabetic animals is treated with the AT1 antagonist candesartan to prevent receptor-mediated uptake.

cardiac myocytes = test: Cardiac myocyte apoptosis in heart sections (TUNEL assay and cleaved caspase-3 staining); conditions: STZ-diabetic rats; for Caspase-3 staining, Mean / TUNEL assay, Mean: 7 days of treatment, heart sections; for Caspase-3 staining, Mean: control 7, diabetic no treatment 28; for TUNEL assay, Mean: control 8.5, diabetic no treatment 33
[2] = tested on: Superoxide production in the hearts; test: Reactive oxygen species detection in the heart by dihydroethidium (DHE) staining; conditions: STZ-diabetic rats; for DHE fluorescence, Mean: 7 days of treatment, frozen heart sections, 10 μM DHE, control 17.65, diabetic no treatment 68.6; for superoxide production / oxidative stress (result in words): DHE staining of heart sections
[3] = tested on: Cardiac interstitial fibrosis; test: Cardiac interstitial fibrosis by Masson's trichrome staining, graded on a scale of 0-4; conditions: for degree of fibrosis (average grade): STZ-diabetic rats after one week of diabetes, scale 0-4, diabetic untreated grade 1.5, control grade 0; for diabetes-induced cardiac fibrosis (result in words): diabetic rats, summary statement
Protocol: as §1
Cardiac interstitial fibrosis is determined by Masson's trichrome staining on 5 μm paraffin-embedded sections. The extent and degree of fibrosis is graded on a scale of 0-4. Grade 0 signifies no apparent collagen fiber proliferation except for small islets of fibrous tissue around the capillaries, as well as an intercellular single layer of collagenous tissue, as in normal myocardium. Focal and minimal fibrosis is graded as 1, mild patchy fibrosis as grade 2, moderate diffuse fibrosis as grade 3 and the most prominent fibrosis, covering major area of the specimen, is classified as 4. A minimum of three sections per heart, with five fields per section, and three animals per experimental group, are analyzed and results presented as an average grade.
After one week of diabetes, the overall staining for fibrosis is enhanced in hearts from diabetic rats (grade 1.5), compared to control animals (grade 0). […] Candesartan and benazepril reduces the degree of fibrosis (grade 0.43 and 0.88, respectively), whereas aliskiren has a more pronounced reduction of fibrosis (grade 0.25) in diabetic rat hearts.

Molecule | iAng II levels in cardiac myocytes [1] | iAng II synthesis, blocked or not (result in words) [1] | Caspase-3 staining, Mean (cardiac myocytes) | TUNEL assay, Mean (cardiac myocytes) | DHE fluorescence, Mean [2] | superoxide production / oxidative stress (result in words) [2] | degree of fibrosis (average grade) [3] | diabetes-induced cardiac fibrosis (result in words) [3] | number of apoptotic cells (result in words) (cardiac myocytes; by both TUNEL assay and caspase-3 staining)
COCCCOc1cc(C[C@@H](C[C@H](N)[C@@H](O)C[C@H](C(=O)NCC(C)(C)C(N)=O)C(C)C)C(C)C)ccc1OC [aliskiren, 2(S),4(S),5(S),7(S)—N-(3-amino-2,2-dimethyl-3-oxopropyl)-2,7-di(1-methylethyl)-4-hydroxy-5-amino-8-[4-methoxy-3-(3-methoxy-propoxy)phenyl]-octanamide] | 0.12±0.02 fmole/mg heart wt | blocked | 18 positive cells/mm^2 | 21.3 positive cells/mm^2 | 22.7 Arbitrary units | blocks it completely | 0.25 grade | complete inhibition | –
CCOC(=O)[C@H](CCc1ccccc1)N[C@H]1CCc2ccccc2N(CC(=O)O)C1=O [benazepril] | 0.55±0.02 fmole/mg heart wt | not | 21 positive cells/mm^2 | 27 positive cells/mm^2 | 51.4 Arbitrary units | reduces oxidative stress | 0.88 grade | partially inhibited | –
CCOc1nc2cccc(C(=O)O)c2n1Cc1ccc(-c2ccccc2-c2nnn[nH]2)cc1 [candesartan] | 0.43±0.05 fmole/mg heart wt | – | 18.5 positive cells/mm^2 | 24 positive cells/mm^2 | 37.7 Arbitrary units | – | 0.43 grade | – | –
insulin: type 1 diabetes therapeutic agent, used to normalize blood glucose in STZ-treated rats | – | – | 14 positive cells/mm^2 | 20 positive cells/mm^2 | 26.7 Arbitrary units | prevented | 0.04 grade | – | reduces the number of apoptotic cells, but does not prevent apoptosis completely
